This note sets out measurements from patent US20110177054A1, “USE OF ENDO-LYSOSOMAL SYSTEM AND SECRETED VESICLES (EXOSOME-LIKE) IN TREATMENTS AND DIAGNOSTICS BASED ON SMALL RNA AND EXPERIMENTAL STUDY OF SMALL RNA” (priority 2008, published 2011).

One data set concerns the target T1, BIG2 (Homo sapiens, UniProt Q9Y6D5).
T1 construct: endogenous in cells; host or cells: Mono-Mac6 monocytic cells
Kind of data set: Exosome release after RNAi of BIG2 (protein in purified exosome pellets). In kind it is cell-based. The protocol:
FIG. 5: Differential centrifugation enriches exosomes greatly. (A) Western blot of 50 μg of cell or exosome lysate with markers of exosomes (CD63, Tfr R, or Ub). (B) Cell counts and total protein quantitation of exosome pellets 36 h after transfection of cells with siRNA targeting BIG2 or control. (C) Electron microscopy of resuspended exosome pellets after uranyl acetate staining. (D) Dynamic light scattering analysis of purified exosome pellets resuspended in PBS (Phosphate buffered saline). Top graph represents five sets of measurements as size in nm (x-axis) as a function of relative number (y-axis) of particles detected. Bottom graph represents size in nm (x-axis) as a function of volume (y-axis). Measurements by volume exponentially amplify the representation of larger particles present.
FIG. 9: Purified exosomes are enriched in GW182, but not Dcp1a or Ge-1. (a) Equal amounts of proteins from exosomes and cells were analyzed by western blotting for exosome-enriched protein, CD63. Electron microscopy of resuspended exosome pellets. […] Error bars, SEM of five measurements. (c) RNAi of BIG2 reduces the recovery of proteins in exosome preparations (paired t-test, n=4, p=0.0194, a=0.05). […] (d) Equal amounts of proteins from exosomes and whole cells were analyzed by western blotting. […]

The subject of data set [1] is miR-K12-4 target reporter. Put plainly: Intercellular transfer of miR-K12-4 by exosomes (psiCHECK dual luciferase reporter in target cells). As to conditions: BIG2 siRNA delivered to exosome producing cells simultaneously with miR-K12-4 or miR-206 plasmids. The format is cell-based. The protocol: FIG. 7: exosomes transfer active siRNA and miRNA to target cells in a BIG2-dependent manner. (A) Exosomes purified from cells transfected with GFP siRNA or control siRNA were incubated with cells transfected with GFP. GFP expression was examined 8 hours or 24 hours later by flow cytometry. GFP expression was calculated as 1-(GFP expression GFP siRNA exosomes/GFP expression control siRNA exosomes)×100. (n=3, p<0.05, paired t-test). (B) Exosomes purified from cells transfected with miR-206 or miR-K12-4 were incubated with cells transfected with a target site for miR-K12-4 inserted into the psiCHECK dual luciferase plasmid. Activity of luciferases was measured 8 hours later. Inhibition of Firefly luciferase expression was calculated as: 1-(Firefly luciferase/Renilla luciferase miR-K12-4 exosomes)/(Firefly luciferase/Renilla luciferase miR-206 exosomes)×100. (n=4, p<0.05, paired t-test). Error bars represent standard error of the mean.
FIG. 8: Exosomes mediate transfer of miRNA activity in a BIG2-dependent manner. […] Activity of luciferases was measured after 8 hours (n=4, p=0.0287, t-test, a=0.05). […] GFP expression was measured by FACS analysis after 8 or 24 h (right). […]

T1 sequence (Q9Y6D5 whole entry): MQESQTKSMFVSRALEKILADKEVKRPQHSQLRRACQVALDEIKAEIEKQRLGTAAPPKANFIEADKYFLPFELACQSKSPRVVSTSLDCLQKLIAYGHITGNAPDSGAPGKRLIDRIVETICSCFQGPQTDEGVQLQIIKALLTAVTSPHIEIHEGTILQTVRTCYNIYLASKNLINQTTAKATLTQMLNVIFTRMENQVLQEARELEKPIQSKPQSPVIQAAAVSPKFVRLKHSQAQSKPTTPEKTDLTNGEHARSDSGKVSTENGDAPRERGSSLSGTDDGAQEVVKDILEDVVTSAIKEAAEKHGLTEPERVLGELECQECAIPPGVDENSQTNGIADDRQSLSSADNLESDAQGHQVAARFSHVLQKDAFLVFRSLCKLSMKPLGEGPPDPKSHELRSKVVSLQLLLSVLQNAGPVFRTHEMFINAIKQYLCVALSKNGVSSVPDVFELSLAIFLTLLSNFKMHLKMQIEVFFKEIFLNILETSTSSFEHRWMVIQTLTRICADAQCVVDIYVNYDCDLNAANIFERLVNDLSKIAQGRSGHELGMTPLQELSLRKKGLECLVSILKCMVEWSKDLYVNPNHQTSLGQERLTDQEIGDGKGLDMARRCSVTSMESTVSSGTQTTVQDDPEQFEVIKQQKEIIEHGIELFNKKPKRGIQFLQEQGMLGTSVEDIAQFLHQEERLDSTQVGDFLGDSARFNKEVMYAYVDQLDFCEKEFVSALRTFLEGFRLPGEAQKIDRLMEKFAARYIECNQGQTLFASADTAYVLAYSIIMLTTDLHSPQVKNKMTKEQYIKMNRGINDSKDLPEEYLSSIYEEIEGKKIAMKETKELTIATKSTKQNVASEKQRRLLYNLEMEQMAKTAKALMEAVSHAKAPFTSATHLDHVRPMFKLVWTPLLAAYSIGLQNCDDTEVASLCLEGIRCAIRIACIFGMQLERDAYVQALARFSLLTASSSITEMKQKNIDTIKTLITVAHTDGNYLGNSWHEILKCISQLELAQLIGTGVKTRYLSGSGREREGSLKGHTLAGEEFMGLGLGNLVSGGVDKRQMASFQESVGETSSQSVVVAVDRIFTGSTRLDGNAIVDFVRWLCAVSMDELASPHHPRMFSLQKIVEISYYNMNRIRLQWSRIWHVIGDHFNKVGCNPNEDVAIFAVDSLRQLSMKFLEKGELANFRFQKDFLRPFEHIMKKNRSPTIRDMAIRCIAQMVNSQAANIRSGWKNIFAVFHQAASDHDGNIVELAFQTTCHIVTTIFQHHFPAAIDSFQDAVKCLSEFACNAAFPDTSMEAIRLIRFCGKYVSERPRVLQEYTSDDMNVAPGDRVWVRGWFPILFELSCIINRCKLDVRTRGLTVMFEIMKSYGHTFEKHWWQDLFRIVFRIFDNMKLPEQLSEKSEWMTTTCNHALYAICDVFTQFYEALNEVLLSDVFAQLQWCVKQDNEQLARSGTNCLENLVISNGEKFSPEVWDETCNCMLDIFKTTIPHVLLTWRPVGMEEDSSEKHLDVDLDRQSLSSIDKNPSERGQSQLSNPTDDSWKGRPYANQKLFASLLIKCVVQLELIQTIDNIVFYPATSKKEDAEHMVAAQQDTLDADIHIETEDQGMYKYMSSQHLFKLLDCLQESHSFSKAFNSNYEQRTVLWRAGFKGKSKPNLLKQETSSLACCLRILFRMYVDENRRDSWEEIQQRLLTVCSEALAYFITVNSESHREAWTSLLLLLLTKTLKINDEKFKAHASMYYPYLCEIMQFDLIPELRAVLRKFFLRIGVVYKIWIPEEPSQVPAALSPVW

For the substance “BIG2 siRNA: siRNA targeting BIG2: CGAUGAAAUUAAAGCAGAA (SEQ ID NO. 11) (listed as RNA, chemistry not given here)”, the “recovery of proteins in exosome preparations” value in the data set with BIG2 (RNAi of BIG2 vs control, paired t-test n=4 p=0.0194) is listed as “reduces”. The “reduction of exosome release / vesicle yield” value with BIG2 (siRNA targeting BIG2 vs control siRNA, monocytic cells, transfection efficiency ~50%) is given as about 50%. For the same substance, in data set [1], the “knockdown of miR-K12-4 reporter expression in target cells by exosomes” value is listed as “inhibited knockdown”.
